Assay results reported in ChEMBL document CHEMBL3046758, “Biological evaluation of novel 1,4-dithiine derivatives as potential antimicrobial agents” (Med Chem Res, 2011).
Converted amounts (≈) assume the structure as drawn.

Key:
[1] = system: Candida albicans; experiment: Antifungal activity against Candida albicans DSM 1386 after 24 to 48 hr by broth microdilution method; type: functional
[2] = system: Aspergillus niger; experiment: Antifungal activity against Aspergillus niger DSM 1988 after 24 to 48 hr by broth microdilution method; type: functional
[3] = system: Human immunodeficiency virus 1; experiment: Antiviral activity against Human immunodeficiency virus 1 infected human MT4 cells assessed as inhibition of virus-induced cytopathogenicity after 4 days by MTT assay; type: functional, organism-based; details: Human immunodeficiency virus 1, MT4, 96 h
[4] = system: Vesicular stomatitis virus; experiment: Antiviral activity against Vesicular stomatitis virus infected african green monkey Vero76 cells assessed as reduction of virus-induced plaque reduction after 3 days by MTT assay; type: functional, organism-based; details: Vero 76, 72 h
[5] = Cytotoxicity against Chlorocebus aethiops (African green monkey) Vero76 cells after 48 to 120 hr by MTT assay; type: cell-based, Vero 76; details: chlorocebus sabaeus
[6] = system: Mammalian orthoreovirus 1; experiment: Antiviral activity against Mammalian orthoreovirus 1 infected BHK21 cells assessed as inhibition of virus-induced cytopathogenicity after 3 to 4 days by MTT assay; type: functional, organism-based; details: Mammalian orthoreovirus 1, BHK-21
[7] = system: Human alphaherpesvirus 1; experiment: Antiviral activity against Human herpesvirus 1 infected African green monkey Vero76 cells assessed as reduction of virus-induced plaque reduction after 3 days by MTT assay; type: functional, organism-based; details: Human alphaherpesvirus 1, Vero 76, 72 h
[8] = Cytotoxicity against Homo sapiens (human) MT4 cells containing integrated HTLV-1 genome after 96 hr by MTT assay; type: cell-based
[9] = system: Coxsackievirus B2; experiment: Antiviral activity against Human coxsackievirus B2 infected African green monkey Vero76 cells assessed as reduction of virus-induced plaque reduction after 3 days by MTT assay; type: functional, organism-based; details: Enterovirus B, Vero 76, 72 h
[10] = system: Poliovirus 1; experiment: Antiviral activity against Human poliovirus 1 strain Sabin infected African green monkey Vero76 cells assessed as reduction of virus-induced plaque reduction after 2 days by MTT assay; type: functional, organism-based; details: Enterovirus C, Vero 76, 48 h
[11] = system: Staphylococcus aureus; experiment: Antibacterial activity against Staphylococcus aureus DSM 2569 after 16 to 20 hr by broth microdilution method; type: functional
[12] = system: Vaccinia virus; experiment: Antiviral activity against Vaccinia virus infected African green monkey Vero76 cells assessed as reduction of virus-induced plaque reduction after 3 days by MTT assay; type: functional, organism-based; details: Orthopoxvirus vaccinia, Vero 76, 72 h
[13] = Selectivity index, ratio of CC50 for green monkey Vero76 cells to EC50 for HSV1; set-up: species or system Vero 76
[14] = Cytotoxicity against Bos taurus MDBK cells after 48 to 120 hr by MTT assay; type: cell-based; details: cattle
[15] = system: Yellow fever virus; experiment: Antiviral activity against Yellow fever virus infected BHK21 cells assessed as inhibition of virus-induced cytopathogenicity after 3 to 4 days by MTT assay; type: functional, organism-based; details: BHK-21
[16] = system: Pseudomonas aeruginosa; experiment: Antibacterial activity against Pseudomonas aeruginosa DSM 1117 after 16 to 20 hr by broth microdilution method; type: functional
[17] = Cytotoxicity against Cricetinae BHK21 (hamster normal kidney fibroblast) cells after 48 to 120 hr by MTT assay; type: cell-based, Mesocricetus auratus, BHK-21; details: BHK21 cells (normal kidney fibroblasts)
[18] = system: Bovine viral diarrhea virus 1; experiment: Antiviral activity against Bovine viral diarrhea virus 1 infected MDBK cells assessed as inhibition of virus-induced cytopathogenicity after 3 to 4 days by MTT assay; type: functional, organism-based; details: Bovine viral diarrhea virus isolates and strains
[19] = Selectivity index, ratio of CC50 for green monkey Vero76 cells to EC50 for Coxsackievirus B2; type: toxicity, cell-based, Vero 76; details: read-out: Ratio CC50/EC50
[20] = Selectivity index, ratio of CC50 for green monkey Vero76 cells to EC50 for Yellow fever virus; type: toxicity, cell-based, Vero 76; details: read-out: Ratio CC50/EC50

SMILES	MIC [1] [µM]	MIC [2] [µM]	EC50 [3] [µM]	EC50 [4] [µM]	CC50 [5] [µM]	EC50 [6] [µM]	EC50 [7] [µM]	CC50 at 96 h [8] [µM]	EC50 [9] [µM]	EC50 [10] [µM]	MIC [11] [µM]	EC50 [12] [µM]	Ratio CC50/EC50 [13]	CC50 [14] [µM]	EC50 [15] [µM]	MIC [16] [µM]	CC50 [17] [µM]	EC50 [18] [µM]	selectivity ratio [19]	selectivity ratio [20]
Clc1ccc(COC(Cn2ccnc2)c2ccc(Cl)cc2Cl)c(Cl)c1 (configuration not stated) [MICONAZOLE]	0.8 (≈ 0.333 µg/mL)	20 (≈ 8.32 µg/mL)																		
O=C1C2=C(SCCS2)C(=O)N1CCCCN1CCN(Cc2ccccc2)CC1	> 100	> 100	> 100	> 100	> 100	> 100	29	> 100	> 100	> 100	> 100	> 100	>3.45	> 100	> 100	> 100	> 100	> 100		
O=C1C2=C(SCCS2)C(=O)N1CCCCN1CCN(c2ccccn2)CC1	> 100	> 100	> 100	> 100	> 100	> 100	> 100	> 100	32	> 100	> 100	> 100		> 100	> 100	> 100	> 100	> 100	> 3.12	
O=C1C2=C(SCCS2)C(=O)N1CCCN1CCN(c2ccccc2O)CC1								> 100												
COc1ccccc1N1CCN(CCCN2C(=O)C3=C(SCCS3)C2=O)CC1								> 100												
COc1ccccc1N1CCN(CCCCN2C(=O)C3=C(SCCS3)C2=O)CC1								> 100												
CC1CCN(CC(O)CN2C(=O)C3=C(SCCS3)C2=O)CC1 (configuration not stated)	> 100	> 100						> 100			> 100					> 100				
O=C1C2=C(SCCS2)C(=O)N1CC(O)CN1CCN(c2ccc(F)cc2)CC1 (configuration not stated)	> 100	> 100	> 100	> 100	> 100	> 100	> 100	> 100	> 100	> 100	> 100	> 100		> 100	80	> 100	> 100	> 100		> 1.25
O=C1C2=C(SCCS2)C(=O)N1CC(O)CN1CCCCC1 (configuration not stated)	> 100	> 100						> 100			> 100					> 100				
CCN(CC)CC(O)CN1C(=O)C2=C(SCCS2)C1=O (configuration not stated)	> 100	> 100						> 100			> 100					> 100				
O=C1C2=C(SCCS2)C(=O)N1CCCCN1CCN(c2ncccn2)CC1								> 100												
O=C1NC(=O)C2=C1SCCS2	> 100	> 100						> 100			> 100					> 100				
O=C1C2=C(SCCS2)C(=O)N1CCCCN1CCN(c2ccccc2O)CC1								> 100												
COc1c(C)c2c(c(O)c1C/C=C(\C)CCC(=O)O)C(=O)OC2 [MYCOPHENOLIC ACID]												1.8								
O=C1C2=C(SCCS2)C(=O)N1CCCN1CCN(c2ccccn2)CC1	> 100	> 100						> 100			> 100					> 100				
O=C1C2=C(SCCS2)C(=O)N1CCCCN1CCN(c2ccc(F)cc2)CC1	> 100	> 100	> 100	> 100	> 100	> 100	> 100	> 100	21	> 100	> 100	> 100		> 100	> 100	> 100	> 100	> 100	> 4.76	
Cc1cn([C@H]2C[C@H](N=[N+]=[N-])[C@@H](CO)O2)c(=O)[nH]c1=O [ZIDOVUDINE]			0.01					50												
C#C[C@@]1(O)[C@H](O)[C@@H](CO)O[C@H]1n1ccc(N)nc1=O [2'-ETHYNYL-D-CYTIDINE]									23	18										
O=C1C2=C(SCCS2)C(=O)N1CC(O)CN1CCN(c2ccccc2)CC1 (configuration not stated)	> 100	> 100						> 100			> 100					> 100				
COc1ccccc1N1CCN(CC(O)CN2C(=O)C3=C(SCCS3)C2=O)CC1 (configuration not stated)	> 100	> 100	> 100	> 100	> 100	> 100	> 100	> 100	> 100	> 100	> 100	> 100		> 100	75	> 100	> 100	> 100		> 1.33
CN(C)CC(O)CN1C(=O)C2=C(SCCS2)C1=O (configuration not stated)	> 100	> 100						> 100			> 100					> 100				
CC(C)(C)NCC(O)CN1C(=O)C2=C(SCCS2)C1=O (configuration not stated)	> 100	> 100						> 100			> 100					> 100				
O=C1C2=C(SCCS2)C(=O)N1CC(O)CN1CCN(c2ccccn2)CC1 (configuration not stated)	> 100	> 100						> 100			> 100					> 100				
O=C1C2=C(SCCS2)C(=O)N1CCCCN1CCN(c2ccccc2)CC1	> 100	> 100	> 100	> 100	> 100	> 100	19	> 100	66	> 100	> 100	> 100	>5.26	> 100	88	> 100	> 100	> 100	> 1.51	> 1.14
O=C1C2=C(SCCS2)C(=O)N1CCCN1CCN(c2ccc(F)cc2)CC1	> 100	> 100	> 100	> 96	96	> 100	> 96	> 100	20	> 96	> 100	> 96		> 100	52	> 100	> 100	> 100	> 4.8	> 1.92
O=C1OC(=O)C2=C1SCCS2	> 100	> 100									> 100					> 100				
O=C(O)c1cn(C2CC2)c2cc(N3CCNCC3)c(F)cc2c1=O [CIPROFLOXACIN]											4 (≈ 1.33 µg/mL)					0.8 (≈ 0.265 µg/mL)				
